Literature values, collected in patent publication US8206772B2, “Structured lipid compositions and methods of formulation thereof” (Kraft Foods Global Brands LLC, priority 2007, dated 2012).

What was measured:
[1] = rats, 5 percent and 10 percent of the diet
[2] = infants fed enriched milk

SMILES | nutritional value / toxicity when fed [1] | fat retained per day [2] [%]
CCCC(=O)OCC(COC(=O)CCC)OC(=O)CCC [tributyrin] | nutritious | 90.1 to 90.2
CC(=O)OCC(COC(C)=O)OC(C)=O [triacetin] | nutritious | 
CC(C)CC(=O)OCC(COC(=O)CC(C)C)OC(=O)CC(C)C [triisovalerin] | toxic | 
